Measurements from patent US10722505B2, “Substituted 2,4 diamino-quinoline as new anticancer agents” (GENOSCIENCE PHARMA, priority 2014, dated 2020).
Counter-ions that a name gives are not always drawn.

Experiments:
[1] = system: LI0050 HCC patient derived cells; assay: CellTiter-Glo growth inhibition, HCC patient-derived cells LI0050; type: cell-based, human; conditions: Homo sapiens; LI0050, 72 hours
Protocol: The patient derived Hepatocellular Carcinoma (HCC) cells were maintained in medium respectively described in table 15 containing 1% penicillin-streptomycin (Life Technologies, 15070-063), with a supplements for primary cell culture (PCS) containing hydrocortisone (50 nM), Epidermal Growth Factor (20 ng/ml), β-fibroblast Growth Factor (10 ng/ml), Heparin (2 μg/ml) ITS liquid media supplement (1×) and non-essential amino acid (NEAA, 0.01 mM, 1×). The primary cell were cultured in a humidified atmosphere (95% relative humidity) with 5% CO2 at 37° C.
The cell growth inhibition assay was performed as described previously in example 5 using the CellTiter-Glo® luminescent cell viability assay as described by the manufacturer (Promega, Ref G7571). The number of cells seeded per well (in 96-Well Flat Clear Bottom Black Polystyrene TC-Treated Microplates, Cat #3340, Corning®) is described in the table 16. A backseal black sticker (Cat #6005189, Perkin Elmer) was placed to the bottom of each plate before recording CellTiter-Glo® luminescence.
The experimental data are analyzed using a computer program, Graphpad Prism V 5.0 (GraphPad Software, Inc. La Jolla, Calif.) and EC50 values were determined as the dose of compound required to reduce absorbance values to 50% of the signal obtained for vehicle treated cell cultures and were a mean of at least three independent experiments.

Hep3B-Luc cell line = assay: CellTiter-Glo growth inhibition assay, Hep3B-Luc; type: cell-based; conditions: Homo sapiens, Hep 3B-Luc, 72 h
Protocol: Before compound treatment, the compound was dissolved in H2O to make a 10 mM stock solution. The working solutions (5 folds final concentrations) were then prepared with MEM medium (Gibco, 1128319) containing 10% Fetal Bovine Serum (Gibco, 10099141).
Hep3B-Luc cell line (luciferase transfected human liver carcinoma cell line for orthotopic tumor model) was cultured in MEM Medium supplemented with 10% v/v Fetal Bovine Serum (FBS), 1% Penicillin-Streptomycin and maintained at 37° C. with 5% CO2. 800 cells were plated onto 384-well flat clear bottom white (Corning, 3707).
Cells in log-phase are collected and counted. Cell suspensions are added to each well of 384-well plate at 800 cells per well (total volume 40 μl). The margin wells are filled with PBS buffer. Test compound at various concentrations are added in duplicates (add 10 μl 5× compound solutions to the plate). The assay plate is incubated for 72 h in 37° C./5% CO2 incubator. Cell viability was measured using the CellTiter-Glo® luminescent cell viability assay as described by the manufacturer (Promega, Ref G7571). After addition of 100 μL of CellTiter-Glo® reactifs solution, luminescence was measured using a PHERAstar Plus luminometer. Data were recorded by PHERAstar Plus, Data acquisition and analysis were performed using Microsoft Excel program and GraphPad Prism v.6 software.

[2] = system: PBMC (peripheral blood mononuclear cell); assay: CellTiter-Glo growth inhibition assay, PBMC; type: cell-based; conditions: 72 h
Protocol: (§1) All cell lines were maintained in medium containing 1% penicillin-streptomycin (Dutscher, P06-07100) and 10% Fetal Bovine Serum (Gibco, W3387L) except 20% for KG-1 cell line and PBMC, and cultured at 37° C. with 5% CO2.
PBMC was maintained in RPMI 1640 medium medium (Dutscher, L0498).
(§2) Cell viability was measured using the CellTiter-Glo® luminescent cell viability assay as described by the manufacturer (Promega, Ref G7571) using an Infinite F200Pro luminometer (Tecan). Briefly, for adherent cells, cells were plated onto 96-well plates (white with clear bottom) in 90 μL of media per well and were allowed to grow overnight before the assay. For cells growing in suspension, cells were plated onto 96-well plates immediately before the assay.
(§3) Compounds were added at different concentrations to each well, and cell cultures were incubated for 72 h. Vehicle (H2O) was used as a control, and all compounds were tested in a constant percentage of H2O. After addition of 100 μL of CellTiter-Glo®, luminescence was measured using an Infinite F200Pro (Tecan). EC50 values were determined as the dose of compound required to reduce luminescent values to 50% of the signal obtained for untreated cell cultures. The experimental data were analyzed using a computer program, Graphpad Prism v5 (GraphPad Software, Inc. La Jolla, Calif.). […]

MV4-11 cell line = assay: CellTiter-Glo growth inhibition assay, MV4-11; type: cell-based; conditions: Homo sapiens; MV4-11, biphenotypic B myelomonocytic leukemia, 72 h
Protocol: as §1
KG-1 and MV4-11 cell line were maintained in Iscove's modified Dulbecco's medium (Dutscher, L0190).
as §2, §3

[3] = system: CPP19 liver metastatic CRC patient-derived cells; assay: CellTiter-Glo growth inhibition, liver metastatic CRC patient-derived cells CPP19; type: cell-based; conditions: Homo sapiens; CPP19, 72 h
Source text: Patient derived liver metastasis cells (CPP19, 30, 36 and CPP45—see table 1 for clinical descriptions) were maintained in complete DMEM (Gibco) with 10% FBS. Cells were obtained from biopsies provided by CHU-Caremeau (Nimes, France) within an approved protocol. Signed informed consents were obtained from patients prior to samples acquisition in accordance with all ethical and legal aspects. Tumors were washed, minced into fragments (<2 mm^3) and digested with liberase H (0.26 U/mL, Roche) resuspended in Accumax (Sigma-Aldrich). After 2 hours at 37° C., cell suspension was filtered through a […] to obtain a single cell suspension and plated in DMEM medium, supplemented with FBS, glutamine, antibiotics and non-essential aminoacids. When a monolayer of patient-derived tumor cells was formed, cells were detached using trypsin/EDTA and resuspended in DMEM with 10% FBS (for adherent cells) or defined M11 media (for sphere formation). Cells were cultured in a humidified atmosphere at 37° C. and 5% CO2.
Cells were plated at 10^4 cells per well in P96 well plates in DMEM with 10% FBS. After 24 hours, cells were treated with compound 2-3 and cell viability was assessed 72 h post-treatment by CellTiter-Glo® Luminescent Cell Viability Assay (Promega). EC50 were calculated using GraphPad Prism Software v6 (Graphpad Software, Inc La Jolla, Calif.). […]

MOLM-14 cell line = assay: CellTiter-Glo cell viability / growth inhibition assay, MOLM-14 (Example 5); type: cell-based; conditions: Homo sapiens, 72 h
Protocol: as §1
MOLM-14 cell line was maintained in MEM alpha medium (Gibco, 22561-021).
as §2
Compounds were added at different concentrations to each well, and cell cultures were incubated for 72 h. Vehicle (H2O) was used as a control, and all compounds were tested in a constant percentage of H2O. After addition of 100 μL of CellTiter-Glo®, luminescence was measured using an Infinite F200Pro (Tecan). EC50 values were determined as the dose of compound required to reduce luminescent values to 50% of the signal obtained for untreated cell cultures. The experimental data were analyzed using a computer program, Graphpad Prism v5 (GraphPad Software, Inc. La Jolla, Calif.).
All experiments were at least done in duplicate and repeated two independent times.

- EC50 [1]: 3500 nM
- EC50 (Hep3B-Luc cell line): 1100 nM
- EC50 (MV4-11 cell line): 2300 nM
- EC50 (MOLM-14 cell line; MOLM-14, acute myeloïd leukemia, FLT3-ITD heterozygote+/−): 2200 nM
SMILES: CC(C)(C)NC1CCN(c2cc(NCc3ccc(Cl)cc3)nc3ccccc23)CC1 [Compound 2-3, 2-(4-chlorobenzylamino)-4-(4-tert-butylaminopiperidin-1-yl)-quinoline hydrochloride salt]
- EC50 [2]: 1900 nM
- EC50 [3]: 1880 nM
- viability at 4 µM (MOLM-14 cell line; MOLM-14, 4 μM): 31.8%
- viability at 10 µM (MOLM-14 cell line; MOLM-14, 10 μM): 0.3%
